Measurements as given in patent US12466820B2, “Amino quinazoline derivatives as P2X3 inhibitors” (CHIESI FARMACEUTICI S.p.A., priority 2019, dated 2025).

How the values were obtained:
h P2X3 = molecular target: T1, h P2X3 (Homo sapiens, UniProt P56373); assay: In vitro electrophysiology assay for P2X3 (automated whole-cell patch clamp, Sophion Qube); type: cell-based; details: range of activity
T1 sequence (P56373 1-397): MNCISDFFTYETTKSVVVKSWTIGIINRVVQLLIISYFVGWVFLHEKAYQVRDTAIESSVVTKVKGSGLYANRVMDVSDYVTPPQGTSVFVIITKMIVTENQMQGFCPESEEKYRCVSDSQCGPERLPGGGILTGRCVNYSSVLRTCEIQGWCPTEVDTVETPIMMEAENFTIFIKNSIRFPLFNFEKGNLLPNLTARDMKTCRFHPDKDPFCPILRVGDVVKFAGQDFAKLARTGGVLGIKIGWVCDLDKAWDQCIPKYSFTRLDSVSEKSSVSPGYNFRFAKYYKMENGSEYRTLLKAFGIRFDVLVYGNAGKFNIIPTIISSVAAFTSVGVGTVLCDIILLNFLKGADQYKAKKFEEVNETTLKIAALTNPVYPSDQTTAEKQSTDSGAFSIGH
Summary of the method: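 Whole-cell automated patch clamp at room temperature, cells held at −60 mV; after two 800 nM α,β-MeATP baseline responses, antagonist preincubated 10 min then co-applied with 800 nM α,β-MeATP. Inhibition of peak current vs second agonist response; IC50 from 10-concentration curves, one concentration per cell.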

h P2X2/3 = molecular target: T2, h P2X2/3 (Homo sapiens, UniProt P56373+Q9UBL9); assay: In vitro electrophysiology assay for P2X2/3 (same protocol, 10 μM ATP as agonist); type: cell-based; details: Table 7, range of activity
T2 sequence (P56373 1-397): T1 sequence (P56373 1-397)
T2 sequence (Q9UBL9 1-471): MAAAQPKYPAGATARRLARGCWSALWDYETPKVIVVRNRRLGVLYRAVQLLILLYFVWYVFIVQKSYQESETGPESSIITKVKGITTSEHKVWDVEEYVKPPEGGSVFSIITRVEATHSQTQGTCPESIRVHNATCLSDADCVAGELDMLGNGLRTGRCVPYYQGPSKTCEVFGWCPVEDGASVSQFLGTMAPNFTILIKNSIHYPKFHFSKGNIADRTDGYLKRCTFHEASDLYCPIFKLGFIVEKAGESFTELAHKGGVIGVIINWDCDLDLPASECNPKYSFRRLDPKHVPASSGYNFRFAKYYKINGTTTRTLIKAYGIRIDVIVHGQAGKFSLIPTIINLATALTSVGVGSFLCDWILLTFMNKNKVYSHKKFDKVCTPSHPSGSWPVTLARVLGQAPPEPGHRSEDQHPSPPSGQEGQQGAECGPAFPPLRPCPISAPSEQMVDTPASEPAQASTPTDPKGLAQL
Procedure: Cells expressing P2X3 receptors were grown according to standard practice and maintained at 37° C. in a 5% humidified CO2 atmosphere. The cells were seeded into T175 flask 2 days prior to the day of the assay and dissociated from the flasks using TrypLE when grown to confluence of 80-90%. The dissociated cells were resuspended in serum free media at a cell density of 3×10^6 cells/ml and loaded onto the Sophion Qube automated patch-clamp system. The extracellular assay buffer contained 145 mM NaCl, 4 mM KCl, 2 mM CaCl2), 1 mM MgCl2, 10 mM HEPES, and 10 mM glucose at pH 7.4. The intracellular assay solution contained 140 mM CsF, 10 mM NaCl, 10 mM EGTA, 10 mM HEPES at pH 7.2. Agonist stock solutions were prepared in H2O and diluted in bath solution prior to use. All antagonists were prepared as 10 mM stock solutions in DMSO and diluted in bath solution prior to use. All experiments were performed under the whole-cell patch clamp configuration at room temperature with 384 individual cells being voltage clamped at −60 mV simultaneously on the Sophion Qube instrument. Two baseline responses were established with the application of α,β-MeATP (800 nM), with the subsequent agonist applications being washed out using extracellular assay buffer containing 0.5 U/ml apyrase. Following the second agonist application, antagonist was incubated in the absence of α,β-MeATP for 10 minutes. After antagonist preincubation, 800 nM α,β-MeATP and antagonist were co-administered to determine the inhibitory effect of the antagonist. One concentration of an antagonist was assessed against a single cell, with different concentrations of the antagonist applied to other cells on the 384 recording substrate. The control P2X3 current amplitude was taken from the peak current amplitude from the second agonist response prior to preincubation with antagonist. The peak P2X3 current amplitude in the presence of antagonist was used to calculate the inhibitory effect at each concentration of the antagonist according to the following equation: […]
Concentration-response curves were constructed from ten different concentrations with each concentration of antagonist tested on at least two individual cells. The concentration of the antagonist to inhibit P2X3 current by 50% (IC50) was determined by fitting the data with the following equation: […]
Where ‘a’ is minimum response, ‘b’ is maximum response, ‘c’ is IC50 and ‘d’ is Hill slope.
Representative compound of the present invention have been also tested for P2X2/3 receptor.
The same assay protocol was used for the P2X2/3 assay as the P2X3 assay with two modifications: 1) 10 μM ATP was used as the agonist; and 2) the mean current amplitude was measured seven seconds after the application of agonist.

[1] = Table 6, inhibition of P2X3 current, agonist α,β-MeATP (800 nM)

Row | Compound | IC50 (h P2X3; [1]) [nM] | IC50 (h P2X3; Table 7) [nM] | IC50 (h P2X2/3) [µM]
1 | COc1cc(-c2ncc(C)cn2)cc2c(NC(C)c3nc(C)no3)ncnc12 (single isomer, unassigned) [Example 123, 8-Methoxy-N-[1-(3-methyl-1,2,4-oxadiazol-5-yl)ethyl]-6-(5-methylpyrimidin-2-yl)quinazolin-4-amine] | < 316 | < 316 | 3.16 to 31.6
2 | COc1cc(-c2ccc(F)cn2)cc2c(NC(C)c3ccc(C(F)(F)F)nn3)ncnc12 (single isomer, unassigned) [Example 169, 6-(5-fluoro-2-pyridyl)-8-methoxy-N-[1-[6-(trifluoromethyl)pyridazin-3-yl]ethyl]quinazolin-4-amine] | < 316 | < 316 | 3.16 to 31.6
3 | COc1cc(-c2ncc(C)cn2)cc2c(N[C@H](C)c3noc(C)n3)ncnc12 [Example 7, 8-Methoxy-N-[(1R)-1-(5-methyl-1,2,4-oxadiazol-3-yl)ethyl]-6-(5-methylpyrimidin-2-yl)quinazolin-4-amine] | 316 to 3160 | 316 to 3160 | 3.16 to 31.6
4 | COc1cc(-c2ccc(C)cn2)cc2c(NCc3nc(C)no3)ncnc12 [Example 142, 8-methoxy-N-[(3-methyl-1,2,4-oxadiazol-5-yl)methyl]-6-(5-methyl-2-pyridyl)quinazolin-4-amine] | < 316 | < 316 | 3.16 to 31.6
5 | COc1cc(-c2ncc(F)cn2)cc2c(NC(C)c3nnc(C)s3)ncnc12 (centres unmarked) [Example 109, 6-(5-fluoropyrimidin-2-yl)-8-methoxy-N-(1-(5-methyl-1,3,4-thiadiazol-2-yl)ethyl)quinazolin-4-amine] | 316 to 3160 | 316 to 3160 | 3.16 to 31.6
6 | COc1cc(-c2ccc(C)cn2)cc2c(NC(C)c3nc(C)no3)ncnc12 (single isomer, unassigned) [Example 163, 8-Methoxy-N-[1-(3-methyl-1,2,4-oxadiazol-5-yl)ethyl]-6-(5-methyl-2-pyridyl)quinazolin-4-amine] | < 316 | < 316 | 3.16 to 31.6
7 | COc1cc(-c2ccc(F)cc2)cc2c(NC(C)c3cccc(=O)[nH]3)ncnc12 (single isomer, unassigned) [Example 190, 6-(1-((6-(4-Fluorophenyl)-8-methoxyquinazolin-4-yl)amino)ethyl)pyridin-2(1H)-one] | 316 to 3160 | 316 to 3160 | 3.16 to 31.6
8 | COc1cc(-c2ccc(C)cn2)cc2c(NC(C)c3nnc(C)s3)ncnc12 (single isomer, unassigned) [Example 127, 8-methoxy-6-(5-methyl-2-pyridyl)-N-[1-(5-methyl-1,3,4-thiadiazol-2-yl)ethyl]quinazolin-4-amine] | < 316 | < 316 | 3.16 to 31.6
9 | COc1cc(-c2ncc(C)cn2)cc2c(NCc3ccc(C)nc3)ncnc12 [Example 154, 8-methoxy-N-((6-methylpyridin-3-yl)methyl)-6-(5-methylpyrimidin-2-yl)quinazolin-4-amine] | < 316 | < 316 | 0.316 to 3.16
10 | COc1cc(-c2ncc(C)cn2)cc2c(NC(CO)c3nc(C)no3)ncnc12 (single isomer, unassigned) [Example 166] | < 316 | < 316 | 3.16 to 31.6
11 | COc1cc(-c2ccc(F)cn2)cc2c(NC(C)c3nc(C)no3)ncnc12 (centres unmarked) [Example 2, 6-(5-fluoropyridin-2-yl)-8-methoxy-N-(1-(3-methyl-1,2,4-oxadiazol-5-yl)ethyl)quinazolin-4-amine] | < 316 | < 316 | 3.16 to 31.6
12 | COc1cc(-c2ncc(C)cn2)cc2c(NC(C)c3nnc(C)o3)ncnc12 (single isomer, unassigned) [Example 129] | < 316 | < 316 | 3.16 to 31.6
13 | COc1cc(-c2ccc(C)cn2)cc2c(N[C@H](C)c3ccn(C)n3)ncnc12 [Example 159, 8-methoxy-N-[(1R)-1-(1-methylpyrazol-3-yl)ethyl]-6-(5-methyl-2-pyridyl)quinazolin-4-amine] | < 316 | < 316 | 3.16 to 31.6
14 | COc1cc(-c2ccc(F)cn2)cc2c(NC(C)c3nnc(C)s3)ncnc12 (single isomer, unassigned) [Example 173, 6-(5-fluoropyridin-2-yl)-8-methoxy-N-(1-(5-methyl-1,3,4-thiadiazol-2-yl)ethyl)quinazolin-4-amine] | 316 to 3160 | 316 to 3160 | 3.16 to 31.6

The next lines start with the values.

Row | IC50 (h P2X3; [1]) [nM] | IC50 (h P2X3; Table 7) [nM] | IC50 (h P2X2/3) [µM] | Compound
15 | – | – | 0.316 to 3.16 | CNS(=O)(=O)c1cc(-c2ccc(F)cc2)cc2c(N[C@H](C)c3ccc(C)nn3)ncnc12 [Example 19, (R)-6-(4-fluorophenyl)-N-methyl-4-((1-(6-methylpyridazin-3-yl)ethyl)amino)quinazoline-8-sulfonamide]
16 | < 316 | < 316 | 0.316 to 3.16 | COc1cc(-n2cc(C)cn2)cc2c(N[C@H](C)c3ccc(C)nn3)ncnc12 [Example 99, (R)-8-methoxy-6-(4-methyl-1H-pyrazol-1-yl)-N-(1-(6-methylpyridazin-3-yl)ethyl)quinazolin-4-amine]
17 | < 316 | < 316 | 0.316 to 3.16 | COc1cc(-c2ccc(F)cc2)cc2c(NC(C)c3cccc(=O)[nH]3)ncnc12 (single isomer, unassigned) [Example 191, 6-(1-((6-(4-Fluorophenyl)-8-methoxyquinazolin-4-yl)amino)ethyl)pyridin-2(1H)-one]
18 | < 316 | < 316 | 0.316 to 3.16 | COc1cc(-c2ccc(F)cc2)cc2c(NC(C)c3nc(-c4ccncc4)no3)ncnc12 (single isomer, unassigned) [Example 193, 6-(4-fluorophenyl)-8-methoxy-N-(1-(3-(pyridin-4-yl)-1,2,4-oxadiazol-5-yl)ethyl)quinazolin-4-amine]
19 | < 316 | < 316 | 0.316 to 3.16 | Cc1cnc(-c2cc(OC3CCOCC3)c3ncnc(NC(C)c4ccc(C)nn4)c3c2)nc1 (single isomer, unassigned) [Example 28, N-[1-(6-methylpyridazin-3-yl)ethyl]-6-(5-methylpyrimidin-2-yl)-8-tetrahydropyran-4-yloxy-quinazolin-4-amine]
20 | – | – | 0.316 to 3.16 | CNS(=O)(=O)c1cc(-c2ccc(F)cc2)cc2c(N[C@H](C)c3noc(C)n3)ncnc12 [Example 20, (R)-6-(4-fluorophenyl)-N-methyl-4-((1-(5-methyl-1,2,4-oxadiazol-3-yl)ethyl)amino)quinazoline-8-sulfonamide]
21 | < 316 | < 316 | 0.316 to 3.16 | COc1cc(-c2ncc(C)s2)cc2c(NCc3nc(C)no3)ncnc12 [Example 113, 8-methoxy-N-[(3-methyl-1,2,4-oxadiazol-5-yl)methyl]-6-(5-methylthiazol-2-yl)quinazolin-4-amine]
